According to patent US20110008415A1, “NOVEL LIPOPHILIC COMPOSITIONS AND USES THEREOF” (UNIVERSITE DE BRETAGNE OCCIDENTALE, priority 2007, published 2011):

Columns and labels:
[1] = basic side chain / imidazole ring; cited from earlier work
[2] = pKa of basic side chain / imidazole ring; type: physicochemical
[3] = system: 293T7 cells (human kidney embryonal fibroblasts); assay: Transfection of 293T7 cells with luciferase plasmid/liposome complexes; type: cell-based; settings: for transfection efficiency when associated with co-lipids 2c or 7b compared with DOPE: 293T line cells, tests considered as a whole; for observed luminescence values: 293T cells; for efficiency gain as compared to DOPE: value in brackets
Procedure: A lipid film was prepared in a sterile flask under nitrogen by dry evaporating 1 mL of a 10.8 mM cationic lipid or a mixture of a cationic lipid/neutral lipid (molar ratio 1:1) in ethanol. The film was then hydrated with 1 mL of 10 mM HEPES buffer, pH 7.4, the solution was vigorously stirred for 3 min, then allowed to rest at 4° C. After 2 h, the solution was sonicated for 15 min in an ultrasonic bath at 37 kHz (Bioblock ultrasonic bath, Bioblock Scientific, Illkirch, France).
18 μl of a solution of liposomes at 5.4 mM were diluted in 200 μl of 10 mM HEPES buffer, pH 7.4. After 15 min, 7.5 μg of a plasmid encoding the gene of the luciferase (pTG11033; 9514 bp, Transgene S. A., Strasbourg, France) in 20 μl of 10 mM HEPES buffer, pH 7.4, were added to the liposomes and the mixture was allowed to rest for 30 min. The solution comprising the DNA/liposome complexes was adjusted to 1.5 ml with some culture medium free of serum and at 0.15M NaCl with a solution of 5M NaCl.
Two days before transfection, 293T7 cells (human kidney embryonal fibroblasts) were seeded with 1×10^5 cells in 1 mL of a culture medium in a 24-well plate. The day of the transfection, cells achieved 80% confluence. Cells were washed twice with some medium free of serum prior to adding 2.5 μg of DNA in the form of DNA/liposome complexes. After 4 h of incubation at 37° C., the medium was removed and cells were cultured for 48 h with complete culture medium.
The culture medium of the cells was removed and each well was rinsed with 500 μL of PBS. Cell detachment was obtained with 500 μL of the PBS+trypsin per well for 5 min at 37° C. The cell suspension was then centrifuged for 5 min at 250×g (1500 rpm) at 20° C. 400 μL of lysis buffers (CCLR, Promega) were added on the cell pellet, which was allowed to incubate onto ice for 15 min. After Vortex-stirring, centrifugation was effected at 12 000×g for 2 min at 4° C. The luciferase activity contained in 20 μL of supernatant was measured using a luminometer (Bertold Lumat LB 9501) for 10 seconds after injection of 100 μL of luciferin (Luciferase Assay Reagent, Promega). The light transmitted was converted to arbitrary units relative to the protein amount in the sample determined through the bicinchoninic acid method.
The protein amount in the lysate was evaluated through the BCA method (H. Hill and G. Straka, 1998). Proteins were contacted with bicinchoninic acid (BCA) and copper ions in an alkaline medium. The copper ions resulting from the protein-mediated reduction thereof formed stable, colored complexes with BCA. Coloration is objectified through spectrophotometric determination (562 nm). Once a standard range was obtained using bovine serum albumin, the weight of protein contained in the cell lysates was calculated.

[4] = co-lipid 2c (molar ratio 1:1), 48 h after transfection
[5] = co-lipid 7b (molar ratio 1:1), 48 h after transfection
[6] = co-lipid DOPE (molar ratio 1:1), 48 h after transfection
[7] = no co-lipid (—), luciferase plasmid pTG11033, 48 h after transfection

Compound | pKa [1] | imidazole ring protonated at a physiological pH [2] | transfection efficiency when associated with co-lipids 2c or 7b compared with DOPE [3] | observed luminescence values [3, 4] | efficiency gain as compared to DOPE ([3]; co-lipid 2c) | observed luminescence values [3, 5] | efficiency gain as compared to DOPE ([3]; co-lipid 7b) | observed luminescence values [3, 6] | observed luminescence values [3, 7]
N=C(N)NCCCC[C@H](N)C(=O)O [Homoarginine] | 12.5 |  |  |  |  |  |  |  | 
COC(=O)[C@@H](N)CCCNC(=N)N [arginine methyl ester] | 12.48 |  |  |  |  |  |  |  | 
N[C@@H](Cc1c[nH]cn1)C(=O)O [histidine] |  | about 5% |  |  |  |  |  |  | 
c1c[nH]cn1 [imidazole] | about 6 |  |  |  |  |  |  |  | 
COC(=O)[C@@H](N)CCCCN [lysine methyl ester] | 10.57 |  |  |  |  |  |  |  | 
arginine methyl ester dioleoyl-N-phosphoramidate [3a] |  |  | more efficient | 5.10^8 TRLU | 100 | 10^6 TRLU | 0.2 | 5.10^6 TRLU | 7.10^6 TRLU
homoarginine methyl ester dioleoyl-N-phosphoramidate [3b] |  |  | more efficient | 3.10^9 TRLU | 1000 | 3.10^7 TRLU | 10 | 3.10^6 TRLU | 9.10^6 TRLU
lysine methyl ester dioleoyl-N-phosphoramidate [compound 4] |  |  | more efficient | 5.10^7 TRLU | 1.6 | 4.10^7 TRLU | 1.3 | 3.10^7 TRLU | 2.10^7 TRLU
